Results on 16 molecules are retold here after patent publication US20230293517A1, “ANTAGONIST COMPOUNDS” (AdoRx Therapeutics Limited, priority 2020, published 2023).

The target of experiment [1] is human Adenosine A2b receptor (Homo sapiens (Human), UniProt P29275). The experiment is described as follows: Adenosine receptor TR-FRET binding assay (A2b). The settings on record: TR-FRET, inhibition of binding of 30 nM CA200645, CHO cell membranes. An outline of the steps: (§1)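 TR-FRET displacement of fluorescent XAC (CA200645; 30 nM for A2b, 100 nM for A1/A2a/A3) from terbium-labelled human receptors in CHO membranes, 2 h at room temperature with saponin, 1% DMSO. Non-specific binding with 10 μM XAC; 665/620 nm ratio; Ki from IC50 by Cheng–Prusoff.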
Sequence of human Adenosine A2b receptor (P29275 whole entry): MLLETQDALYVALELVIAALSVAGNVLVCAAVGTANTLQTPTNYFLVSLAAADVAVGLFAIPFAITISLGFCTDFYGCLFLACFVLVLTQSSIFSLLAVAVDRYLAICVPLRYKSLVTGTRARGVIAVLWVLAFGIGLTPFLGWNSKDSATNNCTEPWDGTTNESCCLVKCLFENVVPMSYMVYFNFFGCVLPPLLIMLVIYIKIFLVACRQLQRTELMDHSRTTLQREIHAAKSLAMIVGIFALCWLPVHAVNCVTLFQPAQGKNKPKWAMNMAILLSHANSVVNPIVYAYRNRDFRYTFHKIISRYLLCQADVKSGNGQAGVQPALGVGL
A general note: Time-resolved FRET reads energy transfer from a long-lived donor to a nearby acceptor.

In a further experiment the test system is human PBMCs. The experiment is described as follows: CD3/CD28 stimulated IL-2 release NECA reversal assay in human PBMCs. It is filed as cell-based. As to conditions: PBMC, 1 uM NECA, 24 hours, IL-2 in culture supernatant. An outline of the steps: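 PBMCs from citrated healthy-donor blood plated at 50,000 cells/well on 1 ug/ml CD3 antibody with 1 ug/ml CD28 antibody, 1 uM NECA and 0.003-10 μM antagonist (final), 24 h at 37° C. Supernatant IL-2 measured by MSD immunoassay; % inhibition set against no-NECA control wells as 100%.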

In experiment [2] the test system is immature monocyte-derived dendritic cells (MoDC). The experiment is described as follows: MoDC pCREB assay. Format: cell-based, human. As to conditions: Homo sapiens, Dendritic cell; pCREB in immature MoDC, 1 μM NECA, rolipram. Here is the method: Monocytes are isolated from human whole blood using CD14 microbeads (Miltenyi Biotec 130-050-201) and differentiated to immature monocyte-derived dendritic cells (MoDC) by culture for 5 days in Mo-DC Differentiation Medium (Miltenyi Biotec 130-094-812). MoDCs are seeded into fresh medium into U bottomed 96 well culture plates and pre-incubated at 37° C. with serial dilutions of A2A/B antagonists for 15 min. At the same time the cells are co-incubated with the phosphodiesterase inhibitor rolipram (final concentration of 20 µM) to amplify the subsequent pCREB response. Adenosine receptor agonist NECA is then added at 1 μM final concentration, leading to an increase in CREB phosphorylation. Following a 45 min incubation at 37° C., the cells are fixed, permeabilized and stained with directly conjugated fluorescent antibodies to phospho-CREB (Alexa Fluor 488), CD209 (PerCP-Cy5.5) and CD86 (APC). Samples are analysed by FACS to measure fluorescence in corresponding channels, and also forward and Side scatter. The population of CD209+/CD86− low cells corresponding to immature dendritic cells is gated for analysis of pCREB levels.
Approximately 5% of the analysed cells are positive for detection of pCREB in the absence of agonist stimulation, representing the background signalling of all pathways upstream of CREB. Following NECA stimulation this is increased to ˜80% pCREB+ve, and this increase is essentially fully reversible by A2B or dual A2A/B antagonists.
IC50 is represented as the point of inflection of a sigmoidal curve

For experiment [3], the target named is human Adenosine A3 receptor (Homo sapiens (Human), UniProt P0DMS8). The experiment is described as follows: Adenosine receptor TR-FRET binding assay (A3). As to conditions: inhibition of binding of 100 nM CA200645, CHO cell membranes. An outline of the steps:
as §1

The test system of experiment [4] is CD8+T cells in human whole blood. The experiment is described as follows: Measurement of pCREB in CD8+T cells in human whole blood. It is filed as cell-based. As to conditions: 3 μM NECA, rolipram. Summed up: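 Heparinised human whole blood pre-incubated 20 min at 37 °C with serially diluted A2a antagonists plus rolipram, then stimulated 60 min with 3 μM NECA (final). After fixation and red-cell lysis, white cells were permeabilized and stained for phospho-CREB and CD8; pCREB in CD8+ T cells measured by flow cytometry.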

Experiment [5] deals with human Adenosine A1 receptor (Homo sapiens (Human), UniProt P30542). The experiment is described as follows: Adenosine receptor TR-FRET binding assay (A1). The settings on record: inhibition of binding of 100 nM CA200645, CHO cell membranes. Summed up:
as §1

In experiment [6] the target is human Adenosine A2a receptor (Homo sapiens (Human), UniProt P29274). The experiment is described as follows: Adenosine receptor TR-FRET binding assay (A2a). The settings on record: inhibition of binding of 100 nM CA200645, CHO cell membranes. An outline of the steps:
as §1

Sequence of human Adenosine A2a receptor (P29274 whole entry): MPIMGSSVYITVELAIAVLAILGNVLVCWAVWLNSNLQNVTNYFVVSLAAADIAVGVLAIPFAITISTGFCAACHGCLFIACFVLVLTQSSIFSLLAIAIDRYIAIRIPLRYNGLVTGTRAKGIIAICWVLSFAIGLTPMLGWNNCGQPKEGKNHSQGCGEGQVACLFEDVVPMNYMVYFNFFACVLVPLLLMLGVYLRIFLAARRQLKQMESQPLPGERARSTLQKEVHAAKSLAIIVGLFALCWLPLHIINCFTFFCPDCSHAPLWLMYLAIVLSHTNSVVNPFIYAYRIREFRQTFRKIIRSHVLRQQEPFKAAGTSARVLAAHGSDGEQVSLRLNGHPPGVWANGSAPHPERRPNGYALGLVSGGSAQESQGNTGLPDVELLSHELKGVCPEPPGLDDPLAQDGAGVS
Sequence of human Adenosine A1 receptor (P30542 whole entry): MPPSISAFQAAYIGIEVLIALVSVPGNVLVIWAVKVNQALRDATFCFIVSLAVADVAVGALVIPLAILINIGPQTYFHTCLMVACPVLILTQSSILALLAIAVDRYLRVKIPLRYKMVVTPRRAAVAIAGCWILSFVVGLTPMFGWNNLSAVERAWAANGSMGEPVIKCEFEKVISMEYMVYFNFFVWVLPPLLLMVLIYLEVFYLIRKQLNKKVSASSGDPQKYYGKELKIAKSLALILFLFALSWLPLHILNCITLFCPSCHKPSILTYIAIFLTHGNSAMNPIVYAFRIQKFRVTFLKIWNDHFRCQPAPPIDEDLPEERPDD
Sequence of human Adenosine A3 receptor (P0DMS8 whole entry): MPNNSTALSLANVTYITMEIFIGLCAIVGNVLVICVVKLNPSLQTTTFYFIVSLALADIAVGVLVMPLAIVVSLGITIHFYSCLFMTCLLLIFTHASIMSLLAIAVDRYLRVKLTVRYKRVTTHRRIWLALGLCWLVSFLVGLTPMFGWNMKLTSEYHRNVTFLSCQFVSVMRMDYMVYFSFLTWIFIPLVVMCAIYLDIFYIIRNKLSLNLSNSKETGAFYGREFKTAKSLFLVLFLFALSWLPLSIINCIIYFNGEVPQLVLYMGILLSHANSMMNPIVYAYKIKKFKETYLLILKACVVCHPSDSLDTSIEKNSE

On to `Cc1cc(-c2sc(NC(=O)N3CCN(C)CC3)nc2-c2cccc(C#N)c2)cc(Cl)n1` [Example 3.6], for which the Ki (commonly the equilibrium dissociation constant of an inhibitor or competing ligand from its target) came to 1.5 nM in experiment [1], 481 nM in experiment [3], 88 nM in experiment [5] and 0.64 nM in experiment [6]. The IC50 – broadly, the concentration that inhibits the measured activity by half – stood at 7.5 nM with human PBMCs, 51 nM in experiment [2] and 990 nM in experiment [4].
As to `Cc1cc(-c2sc(NC(=O)N3CCC(C)(C#N)CC3)nc2-c2cccc(C#N)c2)cc(Cl)n1` [Example 3.8], the Ki stood at 0.9 nM in experiment [1], 538 nM in experiment [3], 116 nM in experiment [5] and 0.09 nM in experiment [6]. In addition, the 50% inhibitory concentration (IC50) stood at 1 nM in the experiment on human PBMCs, 11 nM in experiment [2] and 750 nM in experiment [4].
Take `Cc1cc(-c2sc(NC(=O)N3CCC(C#N)CC3)nc2-c2cccc(C#N)c2)cc(C)n1` [Example 4.1, 4-Cyano-N-[4-(3-cyanophenyl)-5-(2,6-dimethyl-4-pyridyl)thiazol-2-yl]piperidine-1-carboxamide]: the inhibition constant Ki was 0.6 nM in experiment [1], 145 nM in experiment [3], 11 nM in experiment [5] and 0.11 nM in experiment [6]. Moreover, the half-inhibitory concentration (IC50) was found to be 0.3 nM with human PBMCs, 15 nM in experiment [2] and 10 nM in experiment [4].
Turning to `Cc1cc(-c2sc(NC(=O)N3CCN(C4COC4)CC3)nc2-c2cccc(C#N)c2)cc(C)n1` [Example 4.4, N-[4-(3-Cyanophenyl)-5-(2,6-dimethyl-4-pyridyl)thiazol-2-yl]-4-(oxetan-3-yl)piperazine-1-carboxamide], the Ki is 4.5 nM in experiment [1], 568 nM in experiment [3], 263 nM in experiment [5] and 0.86 nM in experiment [6]. For the same molecule, the IC50 was 6.2 nM with human PBMCs, 95 nM in experiment [2] and 170 nM in experiment [4].
`Cc1cc(-c2sc(NC(=O)N3CC[C@H](C#N)C3)nc2-c2cccc(C#N)c2)cc(C)n1` [Example 4.8, (3S)-3-Cyano-N-[4-(3-cyanophenyl)-5-(2,6-dimethyl-4-pyridyl)thiazol-2-yl]pyrrolidine-1-carboxamide]: the Ki in experiment [1] is 1.5 nM; in experiment [3] it was 180 nM; in experiment [5], 17 nM; in experiment [6], 0.37 nM. In addition, the results for the half-maximal inhibitory concentration (IC50) (in the experiment on human PBMCs; in experiment [2]; in experiment [4]) were 1.1 nM, 12 nM and 40 nM, respectively.
On to `Cc1cc(-c2sc(NC(=O)N3CC(C)(O)C3)nc2-c2cccc(C#N)c2)cc(C)n1` [Example 4.9, N-[4-(3-Cyanophenyl)-5-(2,6-dimethyl-4-pyridyl)thiazol-2-yl]-3-hydroxy-3-methyl-azetidine-1-carboxamide], for which the inhibition constant Ki was 1.5 nM in experiment [1], 133 nM in experiment [3], 9 nM in experiment [5] and 0.14 nM in experiment [6]. Moreover, the figures for the IC50 (with human PBMCs; in experiment [2]; in experiment [4]) were 3.2 nM, 26 nM and 50 nM, respectively.
Take `Cc1cc(-c2sc(NC(=O)N3CC4(COC4)C3)nc2-c2cccc(C#N)c2)cc(C)n1` [Example 4.12, N-[4-(3-Cyanophenyl)-5-(2,6-dimethyl-4-pyridyl)thiazol-2-yl]-2-oxa-6-azaspiro[3.3]heptane-6-carboxamide]: the Ki stood at 1.1 nM in experiment [1], 389 nM in experiment [3], 31 nM in experiment [5] and 0.26 nM in experiment [6]. Further, the IC50 in the experiment on human PBMCs worked out at 2 nM; in experiment [2] it was 18 nM; in experiment [4] it was 50 nM.
For the molecule `COC1(C#N)CCN(C(=O)Nc2nc(-c3cccc(C#N)c3)c(-c3cc(C)nc(C)c3)s2)CC1` [Example 4.22, 4-Cyano-N-[4-(3-cyanophenyl)-5-(2,6-dimethyl-4-pyridyl)thiazol-2-yl]-4-methoxy-piperidine-1-carboxamide], the Ki in experiment [1] came to 0.9 nM; in experiment [3] it was 165 nM; in experiment [5], 35 nM; in experiment [6] it was 0.1 nM. In addition, the figures for the IC50 (in the experiment on human PBMCs; in experiment [2]; in experiment [4]) were 1.1 nM, 11 nM and 110 nM, respectively.
Regarding `Cc1cc(-c2sc(NC(=O)N3CCC4(CC3)CNC(=O)O4)nc2-c2cccc(C#N)c2)cc(C)n1` [Example 6.56, N-[4-(3-Cyanophenyl)-5-(2,6-dimethyl-4-pyridyl)thiazol-2-yl]-2-oxo-1-oxa-3,8-diazaspiro[4.5]decane-8-carboxamide], the IC50 in the experiment with human PBMCs came to 3.5 nM; in experiment [2], 7 nM; in experiment [4] it was 70 nM.
Taken in the same sequence, the figures for `Cc1cc(-c2sc(NC(=O)N3CC(C)(C#N)C3)nc2-c2cccc(C#N)c2)c(F)c(C)n1` [Example 6.68, 3-Cyano-N-[4-(3-cyanophenyl)-5-(3-fluoro-2,6-dimethyl-4-pyridyl)thiazol-2-yl]-3-methyl-azetidine-1-carboxamide] were 3.1 nM, 3 nM and 50 nM.
Turning to `Cc1cc(-c2sc(NC(=O)N3CCC4(CC3)CNC4=O)nc2-c2cccc(C#N)c2)c(F)c(C)n1` [Example 6.69, N-[4-(3-Cyanophenyl)-5-(3-fluoro-2,6-dimethyl-4-pyridyl)thiazol-2-yl]-3-oxo-2,7-diazaspiro[3.5]nonane-7-carboxamide], the IC50 in the experiment with human PBMCs worked out at 10.9 nM; in experiment [2], 3 nM; in experiment [4], 430 nM.
The matching figures for `Cc1cc(-c2sc(NC(=O)N3CC4(COC4)C3)nc2-c2cccc(C#N)c2C)cc(C)n1` [Example 6.79, N-[4-(3-Cyano-2-methyl-phenyl)-5-(2,6-dimethyl-4-pyridyl)thiazol-2-yl]-2-oxa-6-azaspiro[3.3]heptane-6-carboxamide]: 14.5 nM, 83 nM and 350 nM.
Take `COCc1cc(-c2sc(NC(=O)N3CC4(COC4)C3)nc2-c2cccc(C#N)c2)cc(C)n1` [Example 21, N-[4-(3-Cyanophenyl)-5-[2-(methoxymethyl)-6-methyl-4-pyridyl]thiazol-2-yl]-2-oxa-6-azaspiro[3.3]heptane-6-carboxamide]: the Ki in experiment [1] was 3.9 nM; in experiment [3], 1560 nM; in experiment [5] it was 29 nM; in experiment [6], 0.21 nM. For the same molecule, the half-inhibitory concentration (IC50) in experiment [2] was 19 nM; in experiment [4], 20 nM.
Consider `CC(C)(O)c1cc(-c2sc(NC(=O)N3CC4(COC4)C3)nc2-c2cccc(C#N)c2)cc(Cl)n1` [Example 23, N-[5-[2-Chloro-6-(1-hydroxy-1-methyl-ethyl)-4-pyridyl]-4-(3-cyanophenyl)thiazol-2-yl]-2-oxa-6-azaspiro[3.3]heptane-6-carboxamide], for which the inhibition constant Ki in experiment [1] came to 5.7 nM; in experiment [3], 1840 nM; in experiment [5] it was 9 nM; in experiment [6], 0.16 nM. Moreover, the IC50 in experiment [2] was found to be 182 nM; in experiment [4], 20 nM.
With `N#Cc1cccc(-c2nc(NC(=O)N3CC4(COC4)C3)sc2-c2cc(CO)nc(C(F)(F)F)c2)c1` [Example 26, N-[4-(3-Cyanophenyl)-5-[2-(hydroxymethyl)-6-(trifluoromethyl)-4-pyridyl]thiazol-2-yl]-2-oxa-6-azaspiro[3.3]heptane-6-carboxamide], the Ki in experiment [1] was 1.2 nM; in experiment [3], 456 nM; in experiment [5] it was 38 nM; in experiment [6] it was 0.24 nM. For the same molecule, the IC50 worked out at 17 nM in experiment [2] and 50 nM in experiment [4].
With `Cc1cc(-c2sc(NC(=O)N3CC[C@@](C)(C#N)C3)nc2-c2cccc(C#N)c2)cc(C)n1` [Example 27a, (3R)-3-Cyano-N-[4-(3-cyanophenyl)-5-(2,6-dimethyl-4-pyridyl)thiazol-2-yl]-3-methyl-pyrrolidine-1-carboxamide], the Ki in experiment [1] was determined as 1.2 nM; in experiment [3], 313 nM; in experiment [5], 37 nM; in experiment [6], 0.54 nM. For the same molecule, the IC50 in experiment [2] was found to be 10 nM; in experiment [4], 80 nM.
